The test system of this experiment is MV-4-11 cells. The experiment can be described thus: Gene expression microarray analysis (Affymetrix PrimeView) and GSEA. The arrangement: RFU PODN (11730768_x_at) / Fold change /veh PODN (11730768_x_at) / RFU LINC00158 (11744669_a_at) / Fold change /veh LINC00158 (11744669_a_at) / RFU DUSP10 (11751237_a_at) / Fold change /veh DUSP10 (11751237_a_at) / RFU ID3 (11757404_x_at) / Fold change /veh ID3 (11757404_x_at) / RFU PLEKHG5 (11737974_s_at) / Fold change /veh PLEKHG5 (11737974_s_at) / RFU LRRC4B (11730491_at) / Fold change /veh LRRC4B (11730491_at) / RFU GIMAP4 (11747438_a_at) / Fold change /veh GIMAP4 (11747438_a_at) / RFU KRT8 (11758183_x_at) / Fold change /veh KRT8 (11758183_x_at) / RFU CNN1 (11734310_a_at) / Fold change /veh CNN1 (11734310_a_at) / RFU VPS37D (11726825_at) / Fold change /veh VPS37D (11726825_at) / RFU C10orf10 (11716522_x_at) / Fold change /veh C10orf10 (11716522_x_at) / RFU KIR2DL2 /// KIR2DL4 /// KIR2DL5A /// KIR2DL5B /// KIR2DS1 /// KIR2DS2 /// KIR2DS3 /// KIR2DS4 /// KIR3DL3 /// KIR3DL3 /// KIR3DS1 (11738374_at) / Fold change /veh KIR2DL2 /// KIR2DL4 /// KIR2DL5A /// KIR2DL5B /// KIR2DS1 /// KIR2DS2 /// KIR2DS3 /// KIR2DS4 /// KIR3DL3 /// KIR3DL3 /// KIR3DS1 (11738374_at) / RFU C1QL1 (11718748_at) / Fold change /veh C1QL1 (11718748_at) / RFU TMPRSS4 (11747572_a_at) / Fold change /veh TMPRSS4 (11747572_a_at) / RFU HAMP (11756126_x_at) / Fold change /veh HAMP (11756126_x_at) / RFU RNFT2 (11725882_a_at) / Fold change /veh RNFT2 (11725882_a_at) / RFU NR4A2 (11747474_a_at) / Fold change /veh NR4A2 (11747474_a_at) / RFU ABCC12 (11746883_a_at) / Fold change /veh ABCC12 (11746883_a_at) / RFU TMEM136 (11760407_x_at) / Fold change /veh TMEM136 (11760407_x_at) / RFU CLDN22 /// WWC2 (11732394_at) / Fold change /veh CLDN22 /// WWC2 (11732394_at) / RFU HLA-DPB1 (11760878_x_at) / Fold change /veh HLA-DPB1 (11760878_x_at) / RFU SPINT1 (11716480_a_at) / Fold change /veh SPINT1 (11716480_a_at) / RFU GAP43 (11754022_s_at) / Fold change /veh GAP43 (11754022_s_at) / RFU A4GNT (11735810_at) / Fold change /veh A4GNT (11735810_at) / RFU PRB3 (11715151_x_at) / Fold change /veh PRB3 (11715151_x_at) / RFU TUBB4B (11761932_at) / Fold change /veh TUBB4B (11761932_at) / RFU CAPN14 (11732068_a_at) / Fold change /veh CAPN14 (11732068_a_at) / RFU TMCC2 (11721928_a_at) / Fold change /veh TMCC2 (11721928_a_at) / RFU IRGQ (11745062_a_at) / Fold change /veh IRGQ (11745062_a_at) / RFU FAM174B (11720279_a_at) / Fold change /veh FAM174B (11720279_a_at) / RFU TMPRSS4 (11748680_a_at) / Fold change /veh TMPRSS4 (11748680_a_at) / RFU FAM212B (11763350_a_at) / Fold change /veh FAM212B (11763350_a_at) / RFU PLEKHG5 (11743358_a_at) / Fold change /veh PLEKHG5 (11743358_a_at) / RFU ZSCAN30 (11745921_a_at) / Fold change /veh ZSCAN30 (11745921_a_at) / RFU CMKLR1 (11741424_a_at) / Fold change /veh CMKLR1 (11741424_a_at) / RFU LOC101060620 /// MAPK8IP1 (11723275_at) / Fold change /veh LOC101060620 /// MAPK8IP1 (11723275_at) / RFU SPTSSB (11747773_x_at) / Fold change /veh SPTSSB (11747773_x_at) / RFU PRSS12 (11739890_at) / Fold change /veh PRSS12 (11739890_at) / RFU BIN1 (11741810_x_at) / Fold change /veh BIN1 (11741810_x_at) / RFU WNT11 (11732464_a_at) / Fold change /veh WNT11 (11732464_a_at) / RFU C10orf10 (11716521_a_at) / Fold change /veh C10orf10 (11716521_a_at) / RFU C5orf56 (11738089_at) / Fold change /veh C5orf56 (11738089_at) / RFU CYB561 (11721691_x_at) / Fold change /veh CYB561 (11721691_x_at) / RFU ANKRD19P (11752326_a_at) / Fold change /veh ANKRD19P (11752326_a_at) / RFU OR2T12 /// OR2T33 /// OR2T8 (11738714_s_at) / Fold change /veh OR2T12 /// OR2T33 /// OR2T8 (11738714_s_at) / RFU VCAN (11748164_a_at) / Fold change /veh VCAN (11748164_a_at) / RFU JSRP1 (11732532_at) / Fold change /veh JSRP1 (11732532_at) / RFU KRTAP10-11 (11738290_x_at) / Fold change /veh KRTAP10-11 (11738290_x_at) / RFU MYO3A (11730013_a_at) / Fold change /veh MYO3A (11730013_a_at) / RFU EBF3 (11725865_a_at) / Fold change /veh EBF3 (11725865_a_at) / RFU CAMK2N1 (11719241_x_at) / Fold change /veh CAMK2N1 (11719241_x_at) / RFU C5orf56 (11738088_a_at) / Fold change /veh C5orf56 (11738088_a_at) / RFU OLFML3 (11715873_a_at) / Fold change /veh OLFML3 (11715873_a_at) / RFU LOC100653217 /// NTM (11731650_a_at) / Fold change /veh LOC100653217 /// NTM (11731650_a_at) / RFU MAPK11 (11762145_a_at) / Fold change /veh MAPK11 (11762145_a_at) / RFU FIZ1 (11724087_x_at) / Fold change /veh FIZ1 (11724087_x_at) / RFU OASL (11726364_x_at) / Fold change /veh OASL (11726364_x_at) / RFU SOX15 (11748057_x_at) / Fold change /veh SOX15 (11748057_x_at) / RFU CD79A (11719716_a_at) / Fold change /veh CD79A (11719716_a_at) / RFU HIST1H1D (11736915_at) / Fold change /veh HIST1H1D (11736915_at) / RFU CASKIN2 (11723855_a_at) / Fold change /veh CASKIN2 (11723855_a_at) / RFU LOC730098 (11760151_x_at) / Fold change /veh LOC730098 (11760151_x_at) / RFU OR4N2 (11742367_at) / Fold change /veh OR4N2 (11742367_at) / RFU PRRT2 (11749266_a_at) / Fold change /veh PRRT2 (11749266_a_at) / RFU SNX32 (11753110_a_at) / Fold change /veh SNX32 (11753110_a_at) / RFU CDHR5 (11726645_a_at) / Fold change /veh CDHR5 (11726645_a_at) / RFU RCAN1 (11760418_a_at) / Fold change /veh RCAN1 (11760418_a_at) / RFU FAM167A (11723789_a_at) / Fold change /veh FAM167A (11723789_a_at) / RFU FAM26E (11764081_at) / Fold change /veh FAM26E (11764081_at) / RFU ISYNA1 (11749810_s_at) / Fold change /veh ISYNA1 (11749810_s_at) / RFU ACY1 (11761880_at) / Fold change /veh ACY1 (11761880_at) / RFU 11764098_at / Fold change /veh 11764098_at / RFU SAMD14 (11745864_x_at) / Fold change /veh SAMD14 (11745864_x_at) / RFU NPB (11741838_a_at) / Fold change /veh NPB (11741838_a_at) / RFU TMPRSS6 (11731388_a_at) / Fold change /veh TMPRSS6 (11731388_a_at) / RFU KRTAP10-2 (11738614_at) / Fold change /veh KRTAP10-2 (11738614_at) / RFU ARHGAP8 /// PRR5-ARHGAP8 (11727945_x_at) / Fold change /veh ARHGAP8 /// PRR5-ARHGAP8 (11727945_x_at) / RFU KRTAP5-7 /// NADSYN1 (11734609_at) / Fold change /veh KRTAP5-7 /// NADSYN1 (11734609_at) / RFU RASL12 (11751679_a_at) / Fold change /veh RASL12 (11751679_a_at) / RFU CDKN2B (11736163_a_at) / Fold change /veh CDKN2B (11736163_a_at) / RFU PRF1 (11729649_at) / Fold change /veh PRF1 (11729649_at) / RFU, ZNF638 /// ZNF638-IT1 / Fold change vs veh, ZNF638 /// ZNF638-IT1 / RFU, PANK3 / Fold change vs veh, PANK3 / RFU, SH3YL1 / Fold change vs veh, SH3YL1 / RFU, ZEB2 / Fold change vs veh, ZEB2 / RFU, NRIP1 / Fold change vs veh, NRIP1 / RFU, PTTG1IP / Fold change vs veh, PTTG1IP / RFU, CAPN2 / Fold change vs veh, CAPN2 / RFU, MED14 / Fold change vs veh, MED14 / RFU, SNORA58 / Fold change vs veh, SNORA58 / RFU, C1orf63 / Fold change vs veh, C1orf63 / RFU, LRRFIP1 / Fold change vs veh, LRRFIP1 / RFU, NDUFAF7 / Fold change vs veh, NDUFAF7 / RFU, SLC12A2 / Fold change vs veh, SLC12A2 / RFU, IBTK / Fold change vs veh, IBTK / RFU, ESF1 / Fold change vs veh, ESF1 / Fold change vs veh, TMEM50B / RFU, TAOK1 / Fold change vs veh, TAOK1 / RFU, ACBD3 / Fold change vs veh, ACBD3 / RFU, TMA16 / Fold change vs veh, TMA16 / RFU, RWDD3 / Fold change vs veh, RWDD3 / RFU, BCAT1 / Fold change vs veh, BCAT1 / RFU, EDEM3 / Fold change vs veh, EDEM3 / RFU, TMEM33 / Fold change vs veh, TMEM33 / RFU, WDR75 / Fold change vs veh, WDR75 / RFU, AHCTF1 / Fold change vs veh, AHCTF1 / RFU, TFRC / Fold change vs veh, TFRC / RFU, ZDHHC17 / Fold change vs veh, ZDHHC17 / RFU, NOM1 / Fold change vs veh, NOM1 / RFU, ARL8B / Fold change vs veh, ARL8B / RFU, ZBTB11 / Fold change vs veh, ZBTB11 / RFU, TAMM41 / Fold change vs veh, TAMM41 / RFU, KIAA1704 /// LOC100996395 / Fold change vs veh, KIAA1704 /// LOC100996395 / RFU, ING1 / Fold change vs veh, ING1 / RFU, TRMT61B / Fold change vs veh, TRMT61B / RFU, FUBP3 / Fold change vs veh, FUBP3 / RFU, TP53 / Fold change vs veh, TP53 / RFU, TNKS2 / Fold change vs veh, TNKS2 / RFU, ZFP14 / Fold change vs veh, ZFP14 / RFU, ACTR2 / Fold change vs veh, ACTR2 / RFU, PPP3R1 / Fold change vs veh, PPP3R1 / RFU, PIK3R1 / Fold change vs veh, PIK3R1 / RFU, HNRNPA1 / Fold change vs veh, HNRNPA1 / RFU, RNF170 / Fold change vs veh, RNF170 / RFU, ZNF28 / Fold change vs veh, ZNF28 / RFU, RNGTT / Fold change vs veh, RNGTT / RFU, OGT / Fold change vs veh, OGT / RFU, BRD1 / Fold change vs veh, BRD1 / RFU, MARS / Fold change vs veh, MARS / RFU, ZNF655 / Fold change vs veh, ZNF655 / RFU, FAHD1 / Fold change vs veh, FAHD1 / RFU, BDP1 / Fold change vs veh, BDP1 / RFU, LRRCC1 / Fold change vs veh, LRRCC1 / RFU, ARID1A / Fold change vs veh, ARID1A / RFU, ZNF146 / Fold change vs veh, ZNF146 / RFU, ZNF330 / Fold change vs veh, ZNF330 / RFU, GPN3 / Fold change vs veh, GPN3 / RFU, C9orf123 / Fold change vs veh, C9orf123 / RFU, N4BP2L2 / Fold change vs veh, N4BP2L2 / RFU, ARFIP1 / Fold change vs veh, ARFIP1 / RFU, FAM179B / Fold change vs veh, FAM179B / RFU, BCL10 / Fold change vs veh, BCL10 / RFU, UHRF1BP1L / Fold change vs veh, UHRF1BP1L / RFU, BET1 / Fold change vs veh, BET1 / RFU, CNOT2 / Fold change vs veh, CNOT2 / RFU, ZNF268 / Fold change vs veh, ZNF268 / Fold change vs veh, ZNF507 / RFU, DGCR2 / Fold change vs veh, DGCR2 / RFU, WDSUB1 / Fold change vs veh, WDSUB1 / Fold change vs veh, HSP90B1 /// MIR3652 / RFU, ADSS / Fold change vs veh, ADSS / RFU, GK / Fold change vs veh, GK / RFU, ZNF148 / Fold change vs veh, ZNF148 / RFU, TAF9 / Fold change vs veh, TAF9 / RFU, SLC1A5 / Fold change vs veh, SLC1A5 / RFU, SLMO2 / Fold change vs veh, SLMO2 / RFU, ABCC4 / Fold change vs veh, ABCC4 / RFU, LOC101060439 /// RAP1B / Fold change vs veh, LOC101060439 /// RAP1B / RFU, RFX7 / Fold change vs veh, RFX7 / RFU, GTPBP10 / Fold change vs veh, GTPBP10 / RFU, CNEP1R1 / Fold change vs veh, CNEP1R1 / RFU, BIVM-ERCC5 /// ERCC5 / Fold change vs veh, BIVM-ERCC5 /// ERCC5 / RFU, ILF3 / Fold change vs veh, ILF3 / RFU 11762660_at / Fold change /veh 11762660_at / RFU VCAN (11757783_s_at) / Fold change /veh VCAN (11757783_s_at) / RFU DDX43 (11728927_at) / Fold change /veh DDX43 (11728927_at) / RFU KRT8 (11758188_x_at) / Fold change /veh KRT8 (11758188_x_at) / RFU NKD1 (11759106_at) / Fold change /veh NKD1 (11759106_at) / RFU SRD5A1 (11742802_a_at) / Fold change /veh SRD5A1 (11742802_a_at) / RFU TPSAB1 /// TPSB2 (11721975_s_at) / Fold change /veh TPSAB1 /// TPSB2 (11721975_s_at) / RFU GSTM3 (11746129_a_at) / Fold change /veh GSTM3 (11746129_a_at) / RFU IL23R (11737362_x_at) / Fold change /veh IL23R (11737362_x_at) / RFU TMEM51 (11727254_a_at) / Fold change /veh TMEM51 (11727254_a_at) / RFU PIWIL2 (11732686_x_at) / Fold change /veh PIWIL2 (11732686_x_at) / RFU ORM1 (11744905_x_at) / Fold change /veh ORM1 (11744905_x_at) / RFU CCDC152 (11743942_at) / Fold change /veh CCDC152 (11743942_at) / RFU ECM1 (11717891_a_at) / Fold change /veh ECM1 (11717891_a_at) / RFU IL23R (11748794_a_at) / Fold change /veh IL23R (11748794_a_at) / RFU TNFAIP8L3 (11732012_x_at) / Fold change /veh TNFAIP8L3 (11732012_x_at) / RFU MBOAT4 (11741988_at) / Fold change /veh MBOAT4 (11741988_at) / RFU 11764193_at / Fold change /veh 11764193_at / RFU TMEM53 (11763286_at) / Fold change /veh TMEM53 (11763286_at) / RFU MAGEB2 (11727129_at) / Fold change /veh MAGEB2 (11727129_at) / RFU TMEM200A (11744735_a_at) / Fold change /veh TMEM200A (11744735_a_at) / RFU CCDC152 (11751479_a_at) / Fold change /veh CCDC152 (11751479_a_at) / RFU FAM211A (11726209_a_at) / Fold change /veh FAM211A (11726209_a_at) / RFU RGS16 (11746705_a_at) / Fold change /veh RGS16 (11746705_a_at) / RFU VCAN (11755009_s_at) / Fold change /veh VCAN (11755009_s_at) / RFU RHOB (11743442_s_at) / Fold change /veh RHOB (11743442_s_at) / RFU RGS16 (11720943_a_at) / Fold change /veh RGS16 (11720943_a_at) / RFU RGS16 (11720944_at) / Fold change /veh RGS16 (11720944_at) / RFU, VPS4B / Fold change vs veh, VPS4B / RFU, CREB1 / Fold change vs veh, CREB1 / RFU, DNAJC13 / Fold change vs veh, DNAJC13 / RFU, GNAQ / Fold change vs veh, GNAQ / RFU, CDK5R1 / Fold change vs veh, CDK5R1 / RFU, ZRANB3 / Fold change vs veh, ZRANB3 / RFU, CUL4A / Fold change vs veh, CUL4A / RFU, CCNY / Fold change vs veh, CCNY / RFU, UFL1 / Fold change vs veh, UFL1 / RFU, COG3 / Fold change vs veh, COG3 / RFU, DIAPH2 / Fold change vs veh, DIAPH2 / RFU, SKA2 / Fold change vs veh, SKA2 / RFU, AFF3 / Fold change vs veh, AFF3 / RFU, LMF1 / Fold change vs veh, LMF1 / RFU, IPO11 / Fold change vs veh, IPO11 / RFU, DFFB / Fold change vs veh, DFFB / RFU, FOXP1 / Fold change vs veh, FOXP1 / RFU, CARD8 / Fold change vs veh, CARD8 / RFU, STRN3 / Fold change vs veh, STRN3 / RFU, ADK / Fold change vs veh, ADK / RFU, RASSF2 / Fold change vs veh, RASSF2 / RFU, WIPF1 / Fold change vs veh, WIPF1 / RFU, LARP1B / Fold change vs veh, LARP1B / RFU, RASA1 / Fold change vs veh, RASA1 / RFU, RB1 / Fold change vs veh, RB1 / RFU, PPFIA1 / Fold change vs veh, PPFIA1 / RFU, MAT2A / Fold change vs veh, MAT2A / RFU, CCT5 / Fold change vs veh, CCT5 / RFU, WDR92 / Fold change vs veh, WDR92 / RFU, CUX1 / Fold change vs veh, CUX1 / RFU, TTC7A / Fold change vs veh, TTC7A / RFU, TMEM135 / Fold change vs veh, TMEM135 / RFU, DEPTOR / Fold change vs veh, DEPTOR / RFU, CPM / Fold change vs veh, CPM / RFU, DNAJB6 / Fold change vs veh, DNAJB6 / RFU, CACNA2D3 / Fold change vs veh, CACNA2D3 / RFU, DTX4 / Fold change vs veh, DTX4 / RFU, TFCP2 / Fold change vs veh, TFCP2 / RFU, GMCL1 /// GMCL1P1 / Fold change vs veh, GMCL1 /// GMCL1P1 / RFU, AEBP2 / Fold change vs veh, AEBP2 / RFU, SNHG1 /// SNORD22 /// SNORD25 /// SNORD26 /// SNORD27 /// SNORD28 /// SNORD29 /// SNORD31 / Fold change vs veh, SNHG1 /// SNORD22 /// SNORD25 /// SNORD26 /// SNORD27 /// SNORD28 /// SNORD29 /// SNORD31 / Fold change (Aza/veh), C12orf56 (ProbeSet 11735607_a_at) / Fold change (ACY-1035/veh), C12orf56 (ProbeSet 11735607_a_at) / Fold change (Aza/veh), FGFR1OP (ProbeSet 11751329_s_at) / Fold change (ACY-1035/veh), FGFR1OP (ProbeSet 11751329_s_at) / Fold change (Aza/veh), VPS36 (ProbeSet 11739960_a_at) / Fold change (ACY-1035/veh), VPS36 (ProbeSet 11739960_a_at) / RFU SYPL1 (11715823_x_at) / Fold change /veh SYPL1 (11715823_x_at) / RFU IGFBP7 (11715501_s_at) / Fold change /veh IGFBP7 (11715501_s_at) / RFU REEP3 (11722064_at) / Fold change /veh REEP3 (11722064_at) / RFU IGLL1 (11728026_x_at) / Fold change /veh IGLL1 (11728026_x_at): dose or concentration left out as unconfirmed. The conditions noted are these: MV-4-11 cells, 48 hours. It counts as cell-based, human.

On to `Nc1ccc(-c2cccs2)cc1NC(=O)c1ccc2c(c1)cc(C1CC1)n2CCN1CCOCC1` [ACY-1035], for which the “Fold change /veh GAP43 (11754022_s_at)” value turned out to be 0.88.

The values above are taken from PMC5218480 (PLoS ONE, 2017).
